{"source": "paper PMC8073005", "about": "“Antifungal Activity and DNA Topoisomerase Inhibition of Hydrolysable Tannins from Punica granatum L” (International Journal of Molecular Sciences, 2021)", "key": {"Coniella granati M0_C2": {"tested_on": "Coniella granati M0_C2", "experiment": "MIC, micro-spectrophotometric growth assay (phytopathogens)", "assay_type": "cell-based"}, "Candida parapsilosis 7": {"tested_on": "Candida parapsilosis 7", "experiment": "MIC, broth microdilution (human pathogens)", "assay_type": "cell-based", "details": "Lodderomyces parapsilosis, 7, 48 h, read-out: Minimum inhibitory concentration (MIC)"}, "Candida albicans SC 5314 [1]": {"tested_on": "Candida albicans SC 5314", "experiment": "MIC, broth microdilution (human pathogens)", "assay_type": "cell-based", "details": "Candida albicans, SC5314, 48 h, read-out: Minimum inhibitory concentration (MIC)"}, "Candida zeylanoides 33": {"tested_on": "Candida zeylanoides 33", "experiment": "MIC, broth microdilution (human pathogens)", "assay_type": "cell-based", "details": "Dujonia zeylanoides, 33, 48 h, read-out: Minimum inhibitory concentration (MIC)"}, "Candida albicans 44": {"tested_on": "Candida albicans 44", "experiment": "MIC, broth microdilution (human pathogens)", "assay_type": "cell-based", "details": "Candida albicans, 44, 48 h, read-out: Minimum inhibitory concentration (MIC)"}, "[2]": {"tested_on": "Cryptococcus neoformans B 3501", "experiment": "MIC, broth microdilution (human pathogens)", "assay_type": "cell-based", "details": "Cryptococcus neoformans, B3501, 48 h, read-out: Minimum inhibitory concentration (MIC)"}, "Candida albicans 2": {"tested_on": "Candida albicans 2", "experiment": "MIC, broth microdilution (human pathogens)", "assay_type": "cell-based", "details": "Candida albicans, 2, 48 h, read-out: Minimum inhibitory concentration (MIC)"}, "[3]": {"tested_on": "Cryptococcus var. grubii H99 serotype A", "experiment": "MIC, broth microdilution (human pathogens)", "assay_type": "cell-based", "details": "Cryptococcus, 48 h, read-out: Minimum inhibitory concentration (MIC)"}, "[4]": {"tested_on": "Saccharomyces cerevisiae 42", "experiment": "MIC, broth microdilution (human pathogens)", "assay_type": "cell-based", "details": "Saccharomyces cerevisiae, 42, 48 h, read-out: Minimum inhibitory concentration (MIC)"}, "Candida albicans 40": {"tested_on": "Candida albicans 40", "experiment": "MIC, broth microdilution (human pathogens)", "assay_type": "cell-based", "details": "Candida albicans, 40, 48 h, read-out: Minimum inhibitory concentration (MIC)"}, "Cryptococcus 67": {"tested_on": "Cryptococcus 67", "experiment": "MIC, broth microdilution (human pathogens)", "assay_type": "cell-based", "details": "Cryptococcus, 67, 48 h, read-out: Minimum inhibitory concentration (MIC)"}, "[5]": {"target": "T1, topoisomerase I from Candida albicans (Candida albicans, UniProt Q00313)", "T1 sequence (Q00313 1-778)": "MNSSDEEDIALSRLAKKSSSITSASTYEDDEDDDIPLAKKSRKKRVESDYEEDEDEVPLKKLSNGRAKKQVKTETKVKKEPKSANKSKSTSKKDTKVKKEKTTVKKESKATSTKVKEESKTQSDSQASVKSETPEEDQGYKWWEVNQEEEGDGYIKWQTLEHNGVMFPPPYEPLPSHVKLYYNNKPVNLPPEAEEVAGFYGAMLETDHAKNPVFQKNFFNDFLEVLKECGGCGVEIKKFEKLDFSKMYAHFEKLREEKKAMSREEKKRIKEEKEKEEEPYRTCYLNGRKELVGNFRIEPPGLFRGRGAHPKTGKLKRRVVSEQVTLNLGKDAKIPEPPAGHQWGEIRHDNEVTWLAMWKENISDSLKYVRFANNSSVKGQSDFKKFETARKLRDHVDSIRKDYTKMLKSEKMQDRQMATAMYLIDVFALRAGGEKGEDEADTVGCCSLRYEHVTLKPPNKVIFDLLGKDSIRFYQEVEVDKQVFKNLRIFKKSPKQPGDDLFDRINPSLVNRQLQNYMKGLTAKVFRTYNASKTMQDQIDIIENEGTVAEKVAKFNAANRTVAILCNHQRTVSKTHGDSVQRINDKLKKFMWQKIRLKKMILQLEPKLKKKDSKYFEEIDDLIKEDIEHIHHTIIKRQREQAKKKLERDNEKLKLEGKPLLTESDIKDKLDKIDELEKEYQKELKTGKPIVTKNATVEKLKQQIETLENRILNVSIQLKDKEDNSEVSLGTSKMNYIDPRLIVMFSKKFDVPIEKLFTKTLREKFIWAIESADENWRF", "experiment": "Topoisomerase I supercoiled DNA relaxation inhibition", "assay_type": "biochemical"}, "[6]": {"tested_on": "C. albicans 1 (clinically isolated strain)", "experiment": "Time-kill curves", "assay_type": "cell-based, Candida albicans", "details": "compound at its MIC value, 0–96 h"}, "Candida albicans 1": {"tested_on": "Candida albicans 1", "experiment": "MIC, broth microdilution (human pathogens)", "assay_type": "cell-based", "details": "Candida albicans, 1, 48 h, read-out: Minimum inhibitory concentration (MIC)"}, "[7]": {"tested_on": "Cryptococcus neoformans ATCC 11240", "experiment": "MIC, broth microdilution (human pathogens)", "assay_type": "cell-based", "details": "Cryptococcus neoformans, ATCC11240, 48 h, read-out: Minimum inhibitory concentration (MIC)"}, "[8]": {"tested_on": "Alternaria alternata AL19", "experiment": "MIC, micro-spectrophotometric growth assay (phytopathogens)", "assay_type": "cell-based", "details": "Alternaria alternata AL19; PDB, 24 °C, dark; imazalil at label dose; read-out: Minimum inhibitory concentration (MIC)"}, "Candida parapsilosis": {"tested_on": "Candida parapsilosis", "experiment": "MIC, broth microdilution (human pathogens)", "assay_type": "cell-based", "details": "Lodderomyces parapsilosis, 48 h, read-out: Minimum inhibitory concentration (MIC)"}, "[9]": {"tested_on": "Colletotrichum acutatum s.s. M146-2", "experiment": "MIC, micro-spectrophotometric growth assay (phytopathogens)", "assay_type": "cell-based, Colletotrichum acutatum sensu stricto"}, "[10]": {"tested_on": "other genera tested (other fungi strains)", "experiment": "Agar Disk Diffusion Assay, other genera", "assay_type": "cell-based", "details": "100 µg", "experimental": "The antifungal activity of pomegranate compounds was evaluated against 19 clinically isolated fungal strains, including nine belonging to Candida albicans species, two belonging to Aspergillus genus, one belonging to Cryptococcus genus, and one Saccharomyces cerevisiae. The C. albicans strains were isolated on CHROMID agar, Aspergillus and Cryptococcus genus were isolated on SDA-CAF and one Saccharomyces cerevisiae on SDA. All the isolates were confirmed by matrix-assisted laser desorption ionization (MALDI) time-of-flight mass spectrometry (TOF/MS). Strains from the American Type Culture Collection (ATCC) were included. All strains were maintained in SDB with 20% (w/v) glycerol at −80 °C until use and sub-cultured in SDA before each test.\nThe preliminary determination of the antifungal activity of the target compounds (punicalagin, punicalin, ellagic acid, and gallic acid) from pomegranate was carried out by means of the agar disk diffusion assay, according to the standard procedure of the Clinical and Laboratory Standards Institute, with slight modifications. Plates containing SDA were uniformly spread with 100 μL of 10^3 conidia/mL of each strain suspension. […] Disks containing fluconazole (25 μg), amphotericin B (25 μg) and DMSO (20 μL) were used as the positive and the negative control, respectively. The antifungal activity of pomegranate compounds was evaluated by measuring the diameter of the clear inhibition zone formed right around the disks after 48 h incubation at 30 ± 1 °C. The experiment was carried out in triplicate."}, "Aspergillus candidus 25": {"tested_on": "Aspergillus candidus 25", "experiment": "MIC, broth microdilution (human pathogens)", "assay_type": "cell-based", "details": "Aspergillus candidus, 25, 48 h, read-out: Minimum inhibitory concentration (MIC)"}, "Candida strains": {"tested_on": "Candida strains", "experiment": "Agar Disk Diffusion Assay, Candida strains", "assay_type": "cell-based", "details": "100 µg"}, "[11]": {"tested_on": "Candida albicans ATCC 10321", "experiment": "MIC, broth microdilution (human pathogens)", "assay_type": "cell-based", "details": "Candida albicans, ATCC10321, 48 h, read-out: Minimum inhibitory concentration (MIC)"}, "Candida albicans 41": {"tested_on": "Candida albicans 41", "experiment": "MIC, broth microdilution (human pathogens)", "assay_type": "cell-based", "details": "Candida albicans, 41, 48 h, read-out: Minimum inhibitory concentration (MIC)"}, "Candida albicans H": {"tested_on": "Candida albicans H", "experiment": "MIC, broth microdilution (human pathogens)", "assay_type": "cell-based", "details": "Candida albicans, 48 h, read-out: Minimum inhibitory concentration (MIC)"}, "[12]": {"tested_on": "Aspergillus brasiliensis ATCC 16404", "experiment": "MIC, broth microdilution (human pathogens)", "assay_type": "cell-based", "details": "Aspergillus brasiliensis, ATCC16404, 48 h, read-out: Minimum inhibitory concentration (MIC)"}, "Botrytis cinerea B2": {"tested_on": "Botrytis cinerea B2", "experiment": "MIC, micro-spectrophotometric growth assay (phytopathogens)", "assay_type": "cell-based", "details": "Botrytis cinerea B2; PDB, 24 °C, dark; imazalil at label dose; read-out: Minimum inhibitory concentration (MIC)"}, "Candida albicans SC 5314 [13]": {"tested_on": "Candida albicans SC 5314", "experiment": "Time-kill curves", "assay_type": "cell-based", "details": "C. albicans SC 5314; compound at its MIC value; 0–96 h"}, "Aspergillus candidus 3": {"tested_on": "Aspergillus candidus 3", "experiment": "MIC, broth microdilution (human pathogens)", "assay_type": "cell-based", "details": "Aspergillus candidus, 3, 48 h, read-out: Minimum inhibitory concentration (MIC)"}, "DNA topoisomerase I": {"target": "DNA topoisomerase I", "parameters": "method as in PMID 1324981", "details": "reported; cited from earlier work"}}}
{"smiles": "O=C1O[C@H]2[C@@H]3OC(=O)c4cc(O)c(O)c(O)c4-c4c(O)c(O)c5oc(=O)c6c(c(O)c(O)c7oc(=O)c4c5c76)-c4c(cc(O)c(O)c4O)C(=O)OC[C@H]3OC(O)[C@@H]2OC(=O)c2cc(O)c(O)c(O)c2-c2c1cc(O)c(O)c2O", "note": "(mixture of isomers) [Punicalagin, punicalagin]", "values": [{"measurement": "growth reduction", "setting": "Coniella granati M0_C2; C. granati, 48 h of incubation", "value": 83, "unit": "%"}, {"measurement": "MIC", "setting": "Coniella granati M0_C2; Coniella granati M0_C2, PDB, 24 °C, dark, imazalil at label dose, read-out: Minimum inhibitory concentration (MIC)", "value": 184.4, "unit": "µM"}, {"measurement": "MIC", "setting": "Candida parapsilosis 7", "value": 5.5, "unit": "µM"}, {"measurement": "MIC", "setting": "Candida albicans SC 5314 [1]", "value": 0.7, "unit": "µM"}, {"measurement": "MIC", "setting": "Candida zeylanoides 33", "value": 92.2, "unit": "µM"}, {"measurement": "MIC", "setting": "Candida albicans 44", "value": 92.2, "unit": "µM"}, {"measurement": "MIC", "setting": "[2]", "value": 46.1, "unit": "µM"}, {"measurement": "MIC", "setting": "Candida albicans 2", "value": 1.4, "unit": "µM"}, {"measurement": "MIC", "setting": "[3]", "value": 92.2, "unit": "µM"}, {"measurement": "MIC", "setting": "[4]", "value": 1.4, "unit": "µM"}, {"measurement": "MIC", "setting": "Candida albicans 40", "value": 5.5, "unit": "µM"}, {"measurement": "MIC", "setting": "Cryptococcus 67", "value": 92.2, "unit": "µM"}, {"measurement": "IC50", "setting": "[5]", "value": "9 ± 1.2", "unit": "µM"}, {"measurement": "time-kill curve (susceptibility time-course)", "setting": "[6]", "value": "preserved the antifungal activity until the end of the test (96 h)"}, {"measurement": "MIC", "setting": "Candida albicans 1", "value": 1.4, "unit": "µM"}, {"measurement": "MIC", "setting": "[7]", "value": 23, "unit": "µM"}, {"measurement": "MIC", "setting": "[8]", "value": 92.2, "unit": "µM"}, {"measurement": "MIC", "setting": "Candida parapsilosis", "value": 0.7, "unit": "µM"}, {"measurement": "growth reduction", "setting": "[9]; C. acutatum s.s., at 48 h", "value": 66, "unit": "%"}, {"measurement": "MIC", "setting": "[9]; Colletotrichum acutatum s.s. M146-2, PDB, 24 °C, dark, imazalil at label dose, read-out: Minimum inhibitory concentration (MIC)", "value": 184.4, "unit": "µM"}, {"measurement": "share of other genera tested with inhibition zone from 21 to 30 mm", "setting": "[10]", "value": 63, "unit": "%"}, {"measurement": "MIC", "setting": "Aspergillus candidus 25", "value": 92.2, "unit": "µM"}, {"measurement": "share of Candida strains with inhibition zone from 21 to 30 mm", "setting": "Candida strains", "value": 82, "unit": "%"}, {"measurement": "MIC", "setting": "[11]", "value": 0.7, "unit": "µM"}, {"measurement": "MIC", "setting": "Candida albicans 41", "value": 92.2, "unit": "µM"}, {"measurement": "MIC", "setting": "Candida albicans H", "value": 92.2, "unit": "µM"}, {"measurement": "MIC", "setting": "[12]", "value": 2.8, "unit": "µM"}, {"measurement": "MIC", "setting": "Botrytis cinerea B2", "value": 92.2, "unit": "µM"}, {"measurement": "time-kill curve (susceptibility time-course)", "setting": "Candida albicans SC 5314 [13]", "value": "major reduction in the number of C. albicans SC 5314 cells"}, {"measurement": "MIC", "setting": "Aspergillus candidus 3", "value": 92.2, "unit": "µM"}]}
{"smiles": "O=C(O)C[C@@H]1C(=O)O[C@H]2[C@@H]3OC(=O)c4cc(O)c(O)c(O)c4-c4c(cc(O)c(O)c4O)C(=O)OC[C@H]2O[C@@H](OC(=O)c2cc(O)c(O)c(O)c2)[C@@H]3OC(=O)c2cc(O)c(O)c3c2[C@H]1[C@H](O)C(=O)O3", "note": "[CHEMBL525240, Chebulagic acid]", "values": [{"measurement": "IC50", "setting": "DNA topoisomerase I", "value": 0.05, "unit": "µM"}]}
